{"source": "patent US7012095B2", "about": "“Compounds for modulating cell proliferation” (HSC Research and Development Limited, priority 2000, dated 2006)", "key": {"[1]": {"test_system": "OCI-AML-3 acute myeloid leukemia cells", "assay": "In vitro purging of OCI-AML-3 cells", "format": "cell-based", "conditions": "2.5–5 hours exposure, FIG. 17", "protocol": "(§1) For the purging assay, the cells were resuspended in complete medium with or without CR4 as indicated and incubated at 37° C., 5% CO2 for 0–5 hours. Cells were then washed thoroughly with medium to remove CR4, resuspended and plated in 1 ml volumes at 5×10^3 cells/ml, in the absence of exogenous growth factors, into 35 mm petri dishes (Nunc, Gibco) containing alpha MEM (Gibco) plus 10% FCS (Cansera Rexdale, ON.) in 0.9% (vol/vol) methylcellulose (Fluka, Switzerland). Cultures were set at 37° C., 5% CO2 in a humidified atmosphere. Colonies consisting of more than 20 cells were counted at 5 days or earlier using an inverted microscope."}, "[2]": {"test_system": "Z119 acute lymphoblastic leukemia cells", "assay": "In vitro purging of Z119 acute lymphoblastic leukemia", "format": "cell-based, human", "conditions": "50 μM, 2.5 hours exposure; FIG. 15", "protocol": "as §1, with “remove the” for “remove”, “ml volumes,” for “ml volumes at 5×10^3 cells/ml,”, “plus 20%” for “plus 10%”, “at 9” for “at 5”"}, "normal bone marrow cells": {"test_system": "normal bone marrow cells", "assay": "CFU-GEMM assay, normal bone marrow differentiation in culture", "format": "cell-based", "protocol": "The CFU-GEMM assay was performed according to Fauser and Messner (1978, Blood, 52(6) 143–8) and Messner and Fausser (1980, Blut, 41(5) 327–33) with some variations. In brief, heparinized bone marrow cells were layered over Percoll (1.077 gm/ml) (Pharmacia Fine Chemical, Piscataway N.J.) and centrifuged at 400 g at 4° C. for 10 minutes to remove neutrophils and RBCs. The fractionated BM cells at 2×10^5 cells/ml were cultured in IMDM (OCI, Toronto) containing 0.9% (vol/vol) methylcellulose supplemented with 30% FCS (Cansera Rexdale, ON.) or normal human plasma, a cocktail of cytokines containing G-CSF (10 ng/ml, Amgen), IL-3 (40 U/ml, Immunex), MGF (50 ng/ml, Immunex), Erythropoietin (2 u/ml, Epprex) or TPO (10 ng/ml, Amgen), 5×10^−5M β-2-mercaptoethanol and the specified concentration of CR4. The culture mixture was plated in 1 ml volumes into 35 mm petri dishes and incubated at 37° C., 5% CO2 in a humidified atmosphere. All cultures were evaluated at 14 days for the number of BFU-E colonies (defined as aggregates of more than 500 hemoglobinized cells or, 3 or more erythroid subcolonies), CFU-GM colonies (defined as granulocyte or monocyte-macrophage cells or both), CFU-Meg colonies (comprising 4 or more megakaryocytes) and CFU-GEMM colonies (a mixed population comprising of all elements).\nThe CFU-GEMM assay was performed according to Fauser and Messner (1978, Blood, 52(6) 1243–8) and Messner and Fausser (1980, Blut, 41(5) 327–33) with some variations. In brief, heparinized bone marrow cells were layered over Percoll (1.077 gm/ml) (Pharmacia Fine Chemical, Piscataway N.J.) and centrifuged at 400 g at 4° C. for 10 minutes to remove neutrophils and RBCs. […] All cultures were evaluated at 14 days for the number of BFU-E colonies (defined as aggregates of more than 500 hemaglobinized cells or, 3 or more erythroid subcolonies) and CFU-C colonies (defined as granulocyte or monocyte-macrophage cells or both).\nThe CFU-GEMM assay was performed according to Fauser and Messner (1978, Blood, 52(6) 1243–8) and Messner and Fausser (1980, Blut, 41(5) 327–33) with some variations (British Journal of Haematology, 1992, 80, p40–48). […] All cultures were evaluated at 14 days for the number of BFU-E colonies (defined as aggregates of more than 500 hemoglobinized cells or, 3 or more erythroid subcolonies) and CFU-C colonies (defined as granulocyte or monocyte-macrophage cells or both)."}, "[3]": {"test_system": "variety of cancer cells (ALL, Philadelphia positive ALL, acute myeloid leukemia, myeloma, B-lineage lymphoma)", "assay": "Cancer cell growth in culture, summary statements", "format": "cell-based"}}}
{"smiles": "N#C/C(=C\\C=C\\c1ccc(O)c(O)c1)C(=O)NCc1ccccc1", "note": "[CR4, (E,E)-2-(Benzylamido)-3-(3,4-dihydroxystyryl)acrylonitrile]", "values": [{"measurement": "killing of OCI-AML-3 cells", "setting": "[1]; 25 μM", "result": "significant killing"}, {"measurement": "killing of OCI-AML-3 cells", "setting": "[1]; 50 μM", "result": "significant killing"}, {"measurement": "inhibition of Z119 cells", "setting": "[2]", "result": "complete inhibition"}, {"measurement": "effect upon normal cells", "setting": "normal bone marrow cells; at concentrations equivalent to those active on the cancer cells of the same example", "result": "no effect"}, {"measurement": "toxicity to normal cells", "setting": "normal bone marrow cells; until concentrations of 10–20 μM or greater were achieved", "result": "minimal toxicity"}, {"measurement": "efficacy against a variety of cell types (Acute Lymphoblastic Leukemia, Philadelphia positive Leukemia, Acute Myeloid Leukemia)", "setting": "[3]; in culture", "result": "highly effective"}, {"measurement": "toxicity to cancer cells", "setting": "[3]; low nanomolar doses, long term exposure", "result": "highly toxic"}]}
